Results published in patent US12673924B2, “Valiolamine derivatives as glucosidase inhibitors” (Emergent Product Development Gaithersburg Inc., priority 2021, dated 2026).

How the values were obtained:
rat sucrase = biological target: T1, rat sucrase (Rattus norvegicus, UniProt P23739); assay: Intestinal alpha-glucosidase assay, sucrose substrate; type: biochemical; details: alpha-glucosidase from intestinal rat powder
T1 construct: partially purified alpha-glucosidase from intestinal rat powder; from tissue; host or cells: rat intestinal powder
Procedure: (§1) Intestinal alpha-glucosidases (rat maltase and sucrase): Intestinal alpha-glucosidases act upon 1,4-alpha-glucoside bonds, breaking down disaccharides to glucose. To perform this assay, partially purified alpha-glucosidase from intestinal rat powder was incubated for 60 minutes at 37° C. with multiple dilutions of test compounds. Maltose or Sucrose respectively was then introduced as substrate to the mixture and incubated for 30 minutes at 37° C. The reaction was stopped by a 5-minute incubation at 90° C. and the resultant glucose production is detected using Sigma's Glucose GO Kit. Percent inhibition was then plotted as a function of concentration for each test compound. The IC50 was determined using a 4-PL curve fit and serves as the measure of relative inhibition of each test compound (see Table 4). Table 4 summarizes the results of IC50s for each molecule against each tested glucosidase enzyme.

rat maltase = assay: Intestinal alpha-glucosidase assay, maltose substrate; type: biochemical; details: alpha-glucosidase from intestinal rat powder
Procedure: as §1

T1 sequence (P23739 whole entry): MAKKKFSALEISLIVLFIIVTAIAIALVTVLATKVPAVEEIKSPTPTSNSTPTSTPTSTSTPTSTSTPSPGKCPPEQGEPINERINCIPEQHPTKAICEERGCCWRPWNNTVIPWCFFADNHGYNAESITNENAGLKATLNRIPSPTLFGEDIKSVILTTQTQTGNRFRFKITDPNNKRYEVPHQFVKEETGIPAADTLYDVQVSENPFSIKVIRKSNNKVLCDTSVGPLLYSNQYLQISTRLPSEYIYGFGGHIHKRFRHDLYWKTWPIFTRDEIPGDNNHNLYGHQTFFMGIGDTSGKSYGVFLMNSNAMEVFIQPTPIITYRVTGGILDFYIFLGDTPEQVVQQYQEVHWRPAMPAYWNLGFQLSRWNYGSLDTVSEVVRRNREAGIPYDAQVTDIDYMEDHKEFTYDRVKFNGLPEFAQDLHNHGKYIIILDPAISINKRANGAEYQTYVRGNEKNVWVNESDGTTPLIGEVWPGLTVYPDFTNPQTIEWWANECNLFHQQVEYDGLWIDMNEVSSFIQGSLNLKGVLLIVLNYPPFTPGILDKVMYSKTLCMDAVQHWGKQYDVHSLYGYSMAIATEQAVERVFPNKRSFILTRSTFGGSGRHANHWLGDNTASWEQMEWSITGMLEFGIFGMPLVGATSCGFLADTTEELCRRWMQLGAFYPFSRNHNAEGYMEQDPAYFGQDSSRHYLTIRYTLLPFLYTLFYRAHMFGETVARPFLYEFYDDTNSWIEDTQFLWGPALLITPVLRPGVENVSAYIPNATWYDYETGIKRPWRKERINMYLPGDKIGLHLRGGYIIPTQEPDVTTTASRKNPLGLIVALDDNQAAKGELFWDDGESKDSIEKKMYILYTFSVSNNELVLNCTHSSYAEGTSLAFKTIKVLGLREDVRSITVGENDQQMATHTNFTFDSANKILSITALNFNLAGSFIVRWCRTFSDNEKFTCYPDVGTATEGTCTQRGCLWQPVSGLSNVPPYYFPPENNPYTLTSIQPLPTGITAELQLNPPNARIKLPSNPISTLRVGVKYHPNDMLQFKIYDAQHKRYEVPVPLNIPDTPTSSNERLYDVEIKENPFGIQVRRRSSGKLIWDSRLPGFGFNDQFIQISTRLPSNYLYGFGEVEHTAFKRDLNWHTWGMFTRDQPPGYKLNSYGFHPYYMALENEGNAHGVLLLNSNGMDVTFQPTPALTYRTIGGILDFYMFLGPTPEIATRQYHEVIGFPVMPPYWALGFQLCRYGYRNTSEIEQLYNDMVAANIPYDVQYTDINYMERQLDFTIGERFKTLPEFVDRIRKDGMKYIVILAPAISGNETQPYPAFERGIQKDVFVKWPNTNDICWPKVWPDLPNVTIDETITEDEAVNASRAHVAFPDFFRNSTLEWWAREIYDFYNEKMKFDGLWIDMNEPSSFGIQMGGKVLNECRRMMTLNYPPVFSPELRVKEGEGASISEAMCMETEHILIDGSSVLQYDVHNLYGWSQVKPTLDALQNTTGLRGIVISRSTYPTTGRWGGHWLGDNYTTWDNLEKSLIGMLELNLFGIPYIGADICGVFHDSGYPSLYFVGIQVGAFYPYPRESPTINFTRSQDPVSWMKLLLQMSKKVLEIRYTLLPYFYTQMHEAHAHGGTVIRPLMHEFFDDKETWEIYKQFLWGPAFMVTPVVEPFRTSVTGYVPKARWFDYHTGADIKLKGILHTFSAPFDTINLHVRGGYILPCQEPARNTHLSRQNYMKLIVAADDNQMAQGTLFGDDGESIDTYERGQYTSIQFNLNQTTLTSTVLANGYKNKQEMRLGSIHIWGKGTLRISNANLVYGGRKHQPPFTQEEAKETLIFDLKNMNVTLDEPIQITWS

| IC50 (rat sucrase) [nM] | IC50 (rat maltase) [nM] | Compound |
| --- | --- | --- |
| < 33.3 | 1.65 | [N-]=[N+]=Nc1ccc(NCCCCCCN[C@H]2C[C@](O)(CO)[C@@H](O)[C@H](O)[C@H]2O)c([N+](=O)[O-])c1 [Compound 2, (1S,2S,3R,4S,5S)-5-((6-((4-azido-2-nitrophenyl)amino)hexyl)amino)-1-(hydroxymethyl)cyclohexane-1,2,3,4-tetraol] |
| 2930 | 512 | O=[N+]([O-])c1cc(-n2cnnn2)ccc1NCCCCCCN[C@H]1C[C@](O)(CO)[C@@H](O)[C@H](O)[C@H]1O [Compound 4, (1S,2S,3R,4S,5S)-1-(hydroxymethyl)-5-((6-((2-nitro-4-(1H-tetrazol-1-yl)phenyl)amino)hexyl)amino)cyclohexane-1,2,3,4-tetraol] |
| 67.4 | < 33.3 | O=[N+]([O-])c1cc(-n2ccnn2)ccc1NCCCCCCN[C@H]1C[C@](O)(CO)[C@@H](O)[C@H](O)[C@H]1O [Compound 6, (1S,2S,3R,4S,5S)-1-(hydroxymethyl)-5-((6-((2-nitro-4-(1H-1,2,3-triazol-1-yl)phenyl)amino)hexyl)amino)cyclohexane-1,2,3,4-tetraol] |
| – | 8.14 | O=[N+]([O-])c1cc(-c2ncccn2)ccc1NCCCCCCN[C@H]1C[C@](O)(CO)[C@@H](O)[C@H](O)[C@H]1O [Compound 7, (1S,2S,3R,4S,5S)-1-(hydroxymethyl)-5-((6-((2-nitro-4-(pyrimidin-2-yl)phenyl)amino)hexyl)amino)cyclohexane-1,2,3,4-tetraol] |
| – | 5.3 | [N-]=[N+]=Nc1ccc(NCCCCN[C@H]2C[C@](O)(CO)[C@@H](O)[C@H](O)[C@H]2O)c([N+](=O)[O-])c1 [Compound 8, (1S,2S,3R,4S,5S)-5-((4-((4-azido-2-nitrophenyl)amino)butyl)amino)-1-(hydroxymethyl)cyclohexane-1,2,3,4-tetraol] |
| 11.2 | 4.86 | [N-]=[N+]=Nc1ccc(NCCCCCN[C@H]2C[C@](O)(CO)[C@@H](O)[C@H](O)[C@H]2O)c([N+](=O)[O-])c1 [Compound 9, (1S,2S,3R,4S,5S)-5-((5-((4-azido-2-nitrophenyl)amino)pentyl)amino)-1-(hydroxymethyl)cyclohexane-1,2,3,4-tetraol] |

Second part, the compound before the results:

| Compound | IC50 (rat sucrase) [nM] | IC50 (rat maltase) [nM] |
| --- | --- | --- |
| COCCCCCCCCCN[C@H]1C[C@](O)(CO)[C@@H](O)[C@H](O)[C@H]1O [Compound 3, (1S,2S,3R,4S,5S)-1-(hydroxymethyl)-5-((9-methoxynonyl)amino)cyclohexane-1,2,3,4-tetraol] | 116 | 102 |
| O=[N+]([O-])c1cc(-n2nccn2)ccc1NCCCCCCN[C@H]1C[C@](O)(CO)[C@@H](O)[C@H](O)[C@H]1O [Compound 5, (1S,2S,3R,4S,5S)-1-(hydroxymethyl)-5-((6-((2-nitro-4-(2H-1,2,3-triazol-2-yl)phenyl)amino)hexyl)amino)cyclohexane-1,2,3,4-tetraol] | 34.2 | < 33.3 |
| [N-]=[N+]=Nc1ccc(NCCOCCN[C@H]2C[C@](O)(CO)[C@@H](O)[C@H](O)[C@H]2O)c([N+](=O)[O-])c1 [Compound 10, (1S,2S,3R,4S,5S)-5-((2-(2-((4-azido-2-nitrophenyl)amino)ethoxy)ethyl)amino)-1-(hydroxymethyl)cyclohexane-1,2,3,4-tetraol] | – | 26.1 |
| O=C(O)CCCCN[C@H]1C[C@](O)(CO)[C@@H](O)[C@H](O)[C@H]1O [Compound 11, 5-(((1S,2S,3R,4S,5S)-2,3,4,5-tetrahydroxy-5-(hydroxymethyl)cyclohexyl)amino)pentanoic acid] | 3160 | 7580 |
| N[C@H]1C[C@](O)(CO)[C@@H](O)[C@H](O)[C@H]1O [Valiolamine] | 334 | 1300 |
